From patent publication US8729228B2, “Method of producing a modified (poly) peptide” (University of Geneva, priority 2005, dated 2014)
Residues, ends and D or L forms follow the SMILES beside them. *: point of attachment. OBn = c1ccc(CO*)cc1

Assays:
[1] = biological target: α-smooth muscle-actin (α-SMA) (Homo sapiens, UniProt P62736); conditions: microinjection (Chaponnier et al. 1995) and fusion to a PTD (Hinz et al. 2002); cited from earlier work
[2] = tested on: α-smooth muscle-actin (α-SMA); test: α-SMA stress fibre assay in α-SMA-EGFP transfected REF-52 cells (confocal microscopy); type: cell-based, Rat; conditions: for penetration into the cell, monitored by detection of the expected biological activity: extent measured by comparison with the biological activity of standards
Description: FIG. 15: (a) Constructs designed to deliver the Ac-EEED peptide into cells through a semi-permanent carboxy esterification strategy. (b) Rat embryonic fibroblasts (REF-52 cells) transfected with the α-SMA-EGFP construct (Clement et al., J Cell Sci. 118, 1395-1404 (2005)) were trypsinized, plated on coverslips for 1 days in DMEM/2% FCS and treated with SMA-Peptide [Ac-E(OBzl)-E(OBzl)-E(OBzl)-D(OBzl)-K(Ac)-CONH2] (5 μg/ml) for 45 min in DMEM without FCS (37 C, incubator). Cells were the rinsed in DMEM, fixed with 1% PFA, and mounted for confocal microscopy (LSM510, Carl Zeiss) observation. α-SMA-EGFP transfected cells were either untreated (control; left), or treated for 45 minutes with SMA-Peptide [Ac-E(OBzl)-E(OBzl)-E(OBzl)-D(OBzl)-K(Ac)-CONH2] (right).
This example relates to delivery of the peptide using a semi-permanent carboxy esterification strategy of a synthetic peptide incorporating a C-terminal lysine residue, whose carboxy terminus is amidated and whose epsilon amino group is either acetylated or used as a handle to attach a tracer (fluorochrome, biotin, etc, FIG. 15(a)). Four constructs have been tested, varying the lipophilicity of the protecting ester moiety.

Compound | blocking polymerisation of α-smooth muscle-actin (α-SMA) [1] | α-SMA positive-stress fibers ([2]; REF-52 cells transfected with α-SMA-EGFP, 5 μg/ml for 45 min in DMEM without FCS, 37 C) | penetration into the cell, monitored by detection of the expected biological activity ([2]; listed as template) | penetration into the cell, monitored by detection of the expected biological activity ([2]; listed as template with the carboxylates esterified with benzyl groups)
Ac-EEED | capable of blocking polymerisation of α-smooth muscle-actin (α-SMA) | – | – | –
CC(=O)NCCCC[C@H](NC(=O)[C@H](CC(=O)OCc1ccccc1)NC(=O)[C@H](CCC(=O)OCc1ccccc1)NC(=O)[C@H](CCC(=O)OCc1ccccc1)NC(=O)[C@H](CCC(=O)OCc1ccccc1)NC(C)=O)C(N)=O [SMA-Peptide, Ac-E(OBzl)-E(OBzl)-E(OBzl)-D(OBzl)-K(Ac)-CONH2] (Ac-E(OBn)E(OBn)E(OBn)D(OBn)K(Ac)-NH2) | – | provokes α-SMA positive-stress fiber disappearance | incomplete | showed penetration into the cell
